According to patent US6723897B2, “Methods for controlling gibberellin levels” (Monsanto Technology, LLC, priority 1998, dated 2004):

Legend:
[1] = Particulate material present in solutions after mixing; assay type: physicochemical; details: for Particulate material present, 100X Diln w/water: 0.25 mg/ml compound in water; for solubility in water during imbibition: 0.25 mg/ml treatment solutions
Method: Each of the compounds noted above is weighed to the nearest 0.1 mg in a pre-tarred 1.5-ml polypropylene vial with a screw-top lid. Absolute ethanol is added to the weighed powder to prepare a 25 mg/ml solution. Solutions are thoroughly mixed using a vortex mixer. A stainless steel spatula is used to crush any particulate material remaining after extensive mixing. Vials are left overnight at room temperature, and then remixed to form the concentrated ethanol stock solutions. The presence of undissolved material is noted throughout this procedure.

[2] = system: constitutively GA-deficient transgenic dwarf soybean line 719; assay: Field trial of seed coating application rates, GA-deficient soybean; assay type: in vivo, Glycine max; details: for 719 Height, cm, Heavy soil / 719 Height, cm, Light soil / No. 719 Emerged, Heavy soil / No. 719 Emerged, Light soil / No. 719 Not Rescued, Heavy soil / No. 719 Not Rescued, Light soil: seed coating
Method: (§1) GA3, GA3-3-acetate, GA5, GA9, and GA12 are evaluated in further field trials. […] The objectives of these tests are: 1) to determine if seed coatings, as compared to imbibition, of GA compounds facilitate rescue of constitutively GA-deficient transgenic dwarf soybeans (transgenic lines 719−2 plus 719+17) without causing elongation of wild-type soybeans (line A4922), and 2) to determine the seed treatment rate ranges for each of the selected GA compounds that would provide rescue of constitutively GA-deficient transgenic dwarf soybeans (transgenic lines 719−2 plus 719+17) without causing elongation of wild-type soybeans (line A4922).
(§2) Seeds are treated with GA3, GA5, GA9, GA12, and GA3-3-acetate at rates of 0, 0.1, 1, 10, and 100 μg/seed. These GA compounds are applied to the seeds using a Hege 11 seed treater (Hans-Ulrich Hege GmbH & Co., Waldenburg, Germany); 100% acetone is used as the carrier solvent. The amount of liquid introduced into the seed treater is six fluid ounces/100 lbs seed rate. In addition, GA12 is tested at 50 μg/seed. The untreated control (UTC) consisted of dry, untreated seeds. Seeds of constitutively GA-deficient transgenic dwarf soybean line 719 and wild-type A4922 are sown in both light and heavy soil. The planting depth is 0.5 to 1 inch (1.27 to 2.54 cm); watering is via drip irrigation. The experiment is carried out in three repetitions, using 25 seeds/plot (one five foot (152.4 cm) long row) for line 719, and 75 seeds/plot (two eight foot (243.8 cm) rows) for line A4922. Observations included total emergence, number of dwarfs not rescued, uniformity in plant height, average plant height, visual notes, and digital photos.
(§3) In all the experiments reported in Tables 17-24, treatments are replicated three times in a randomized block design. Data are analyzed using LSD (least significant difference) 0.05 probability using the PRM 5.0 Statistical Analysis Program (SAS Institute, North Carolina).

[3] = system: wild-type soybean line A4922; assay: Field trial of seed coating application rates, wild-type soybean
Method: as §1, §2, §3

For `C=C1C[C@]23C[C@H]1CC[C@H]2[C@@]12CCC[C@@](C)(C(=O)O1)[C@H]2[C@@H]3C(=O)O` [GA9], the “Particulate material present, 100X Diln w/water” value [1] was “YES”, the “solubility in water during imbibition” value [1] was “less soluble in water during imbibition” and the “719 Height, cm, Heavy soil” value ([2]; 10 μg compound per seed) was 4.0 d-i cm. The “719 Height, cm, Light soil” value ([2]; 10 μg compound per seed) was 5.0 efg cm, the “No. 719 Emerged, Heavy soil” value ([2]; 10 μg compound per seed) was 16.3 b-e and the “No. 719 Emerged, Light soil” value ([2]; 10 μg compound per seed) was 21.7 ab. For the same compound, the “No. 719 Not Rescued, Heavy soil” value ([2]; 10 μg compound per seed) was 0.7 ef, the No. 719 Not Rescued, Light soil ([2]; 10 μg compound per seed) was 0.3 and the “719 Height, cm, Heavy soil” value ([2]; 100 μg compound per seed) was 8.3 ab cm. The “719 Height, cm, Light soil” value ([2]; 100 μg compound per seed) was 10.3 cd cm, the “No. 719 Emerged, Heavy soil” value ([2]; 100 μg compound per seed) was 20.3 a-d and the “No. 719 Emerged, Light soil” value ([2]; 100 μg compound per seed) was 19.0 a-e. For the same compound, the “No. 719 Not Rescued, Heavy soil” value ([2]; 100 μg compound per seed) was 0 f, the No. 719 Not Rescued, Light soil ([2]; 100 μg compound per seed) was 0 and the “appearance of line 719 seedlings” value ([2]; 0.1 and 1 μg per seed) was “appeared unusually abnormal”. For the same compound, the “A4922 Height, cm, Heavy soil” value ([3]; 0.1 μg compound per seed) was 5.7 efg cm, the “A4922 Height, cm, Light soil” value ([3]; 0.1 μg compound per seed) was 5.7 f-i cm and the “No. A4922 Emerged, Heavy soil” value ([3]; 0.1 μg compound per seed) was 41.0 a-d. For the same compound, the “No. A4922 Emerged, Light soil” value ([3]; 0.1 μg compound per seed) was 48.3 b-e, the “A4922 Height, cm, Heavy soil” value ([3]; 1 μg compound per seed) was 6.3 efg cm and the “A4922 Height, cm, Light soil” value ([3]; 1 μg compound per seed) was 6.3 fgh cm. The “No. A4922 Emerged, Heavy soil” value ([3]; 1 μg compound per seed) was 43.0 a-d, the “No. A4922 Emerged, Light soil” value ([3]; 1 μg compound per seed) was 46.7 c-g and the “A4922 Height, cm, Heavy soil” value ([3]; 10 μg compound per seed) was 6.7 efg cm. The “A4922 Height, cm, Light soil” value ([3]; 10 μg compound per seed) was 7.3 fg·cm, the “No. A4922 Emerged, Heavy soil” value ([3]; 10 μg compound per seed) was 26.3 g·days and the “No. A4922 Emerged, Light soil” value ([3]; 10 μg compound per seed) was 46.0 c-h. For the same compound, the “A4922 Height, cm, Heavy soil” value ([3]; 100 μg compound per seed) was 10.3 cm·days, the “No. A4922 Emerged, Heavy soil” value ([3]; 100 μg compound per seed) was 28.3 c-g and the “No. A4922 Emerged, Light soil” value ([3]; 100 μg compound per seed) was 40.0 f-i.
With `C=C1C[C@]23C[C@H]1CC[C@H]2[C@]1(C)CCC[C@@](C)(C(=O)O)[C@H]1[C@@H]3C(=O)O` [GA12] the “solubility in water during imbibition” value [1] was “less soluble in water during imbibition”, the “Particulate material present, Initial Mixing” value ([1]; 25 mg/ml in absolute ethanol) was “YES” and the “Particulate material present, O/N Incubation” value ([1]; 25 mg/ml in ethanol, overnight at room temperature, remixed) was “YES”. For the same compound, the “719 Height, cm, Heavy soil” value ([2]; 0.1 μg compound per seed) was 4.0 d-i cm, the “719 Height, cm, Light soil” value ([2]; 0.1 μg compound per seed) was 4.0 g·cm and the “No. 719 Emerged, Heavy soil” value ([2]; 0.1 μg compound per seed) was 20.7 a-d. For the same compound, the “No. 719 Emerged, Light soil” value ([2]; 0.1 μg compound per seed) was 22.3 a, the “No. 719 Not Rescued, Heavy soil” value ([2]; 0.1 μg compound per seed) was 4.3 bc and the “No. 719 Not Rescued, Light soil” value ([2]; 0.1 μg compound per seed) was 6.3 b. The “719 Height, cm, Heavy soil” value ([2]; 1 μg compound per seed) was 3.3 e-i cm, the “719 Height, cm, Light soil” value ([2]; 1 μg compound per seed) was 4.0 g·cm and the “No. 719 Emerged, Heavy soil” value ([2]; 1 μg compound per seed) was 21.0 abc. The “No. 719 Emerged, Light soil” value ([2]; 1 μg compound per seed) was 22.0 a, the “No. 719 Not Rescued, Heavy soil” value ([2]; 1 μg compound per seed) was 5.3 ab and the “No. 719 Not Rescued, Light soil” value ([2]; 1 μg compound per seed) was 3.7 cd. The “719 Height, cm, Heavy soil” value ([2]; 10 μg compound per seed) was 3.0 f-i cm, the “719 Height, cm, Light soil” value ([2]; 10 μg compound per seed) was 2.3 cm·h and the “No. 719 Emerged, Heavy soil” value ([2]; 10 μg compound per seed) was 22.3 ab. The “No. 719 Emerged, Light soil” value ([2]; 10 μg compound per seed) was 21.0 ab, the “No. 719 Not Rescued, Heavy soil” value ([2]; 10 μg compound per seed) was 1.7 def and the “No. 719 Not Rescued, Light soil” value ([2]; 10 μg compound per seed) was 1.7 efg. The “719 Height, cm, Heavy soil” value ([2]; 50 μg compound per seed) was 3.3 e-i cm, the “719 Height, cm, Light soil” value ([2]; 50 μg compound per seed) was 2.3 cm·h and the “No. 719 Emerged, Heavy soil” value ([2]; 50 μg compound per seed) was 23.7 a. The “No. 719 Emerged, Light soil” value ([2]; 50 μg compound per seed) was 22.3 a, the “No. 719 Not Rescued, Heavy soil” value ([2]; 50 μg compound per seed) was 5.0 bc and the “No. 719 Not Rescued, Light soil” value ([2]; 50 μg compound per seed) was 3.0 cde. The “719 Height, cm, Heavy soil” value ([2]; 100 μg compound per seed) was 2.7 ghi cm, the “719 Height, cm, Light soil” value ([2]; 100 μg compound per seed) was 2.0 cm·h and the “No. 719 Emerged, Heavy soil” value ([2]; 100 μg compound per seed) was 20.7 a-d. For the same compound, the “No. 719 Emerged, Light soil” value ([2]; 100 μg compound per seed) was 21.3 ab, the “No. 719 Not Rescued, Heavy soil” value ([2]; 100 μg compound per seed) was 2.0 de and the No. 719 Not Rescued, Light soil ([2]; 100 μg compound per seed) was 1. The “A4922 Height, cm, Heavy soil” value ([3]; 0.1 μg compound per seed) was 5.3 fg·cm, the “A4922 Height, cm, Light soil” value ([3]; 0.1 μg compound per seed) was 5.7 f-i cm and the “No. A4922 Emerged, Heavy soil” value ([3]; 0.1 μg compound per seed) was 24.3 g·days. The “No. A4922 Emerged, Light soil” value ([3]; 0.1 μg compound per seed) was 45.7 c-h, the “A4922 Height, cm, Heavy soil” value ([3]; 1 μg compound per seed) was 5.7 efg cm and the “A4922 Height, cm, Light soil” value ([3]; 1 μg compound per seed) was 5.0 g-i cm. For the same compound, the “No. A4922 Emerged, Heavy soil” value ([3]; 1 μg compound per seed) was 48.0 ab, the “No. A4922 Emerged, Light soil” value ([3]; 1 μg compound per seed) was 55.7 ab and the “A4922 Height, cm, Heavy soil” value ([3]; 10 μg compound per seed) was 5.0 fgh cm. For the same compound, the “A4922 Height, cm, Light soil” value ([3]; 10 μg compound per seed) was 3.7 hij cm, the “No. A4922 Emerged, Heavy soil” value ([3]; 10 μg compound per seed) was 19.0 fg and the “No. A4922 Emerged, Light soil” value ([3]; 10 μg compound per seed) was 46.3 c-g. For the same compound, the “A4922 Height, cm, Heavy soil” value ([3]; 50 μg compound per seed) was 2.7 hi cm, the “A4922 Height, cm, Light soil” value ([3]; 50 μg compound per seed) was 3.0 ij cm and the “No. A4922 Emerged, Heavy soil” value ([3]; 50 μg compound per seed) was 40.0 bcd. The “No. A4922 Emerged, Light soil” value ([3]; 50 μg compound per seed) was 51.3 bcd, the “A4922 Height, cm, Heavy soil” value ([3]; 100 μg compound per seed) was 2.3 i cm and the “A4922 Height, cm, Light soil” value ([3]; 100 μg compound per seed) was 2.7 J·cm. The “No. A4922 Emerged, Heavy soil” value ([3]; 100 μg compound per seed) was 38.7 bcd and the “No. A4922 Emerged, Light soil” value ([3]; 100 μg compound per seed) was 53.0 bc.
With `C=C1C[C@@]23CC[C@H]4[C@@](C)(CCC[C@@]4(C)C(=O)O)[C@@H]2CC[C@@H]1C3` [kaurenoic acid] the “Particulate material present, 100X Diln w/water” value [1] was “YES” and the “solubility in water during imbibition” value [1] was “less soluble in water during imbibition”.
